# Calls of active or inactive are those of the source.
# Tests used:
# [1] = biological target: 26S proteasome non-ATPase regulatory subunit 14 (Homo sapiens, UniProt O00487); assay: inhibition of proteasome subunit RPN11 – biochemical, fluorescence polarization, uHTS hits, confirmation (AID 602368); assay type: functional
# [2] = biological target: DNA (cytosine-5)-methyltransferase 1 (Homo sapiens, UniProt P26358); assay: inhibition of DNA methylation by DNMT1 – biochemical, fluorescent molecular beacon, confirmation (AID 602386); assay type: functional
# [3] = biological target: Glyceraldehyde-3-phosphate dehydrogenase (Homo sapiens, UniProt P04406)
# [4] = biological target: T1, Dual specificity protein phosphatase 6 (Rattus norvegicus, UniProt Q64346)
# T1 sequence (Q64346 whole entry): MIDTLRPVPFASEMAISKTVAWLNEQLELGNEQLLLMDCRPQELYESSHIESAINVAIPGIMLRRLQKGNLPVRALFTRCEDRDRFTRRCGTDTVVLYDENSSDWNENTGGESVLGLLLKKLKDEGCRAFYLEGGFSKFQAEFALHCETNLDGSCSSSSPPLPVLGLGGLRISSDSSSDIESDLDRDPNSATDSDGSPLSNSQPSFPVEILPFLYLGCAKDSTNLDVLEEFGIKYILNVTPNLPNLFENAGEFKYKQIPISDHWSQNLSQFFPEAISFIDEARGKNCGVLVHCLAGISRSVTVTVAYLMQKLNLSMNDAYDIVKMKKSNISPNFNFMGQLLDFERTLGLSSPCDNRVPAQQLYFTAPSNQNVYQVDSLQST
# [5] = biological target: Heat shock cognate 71 kDa protein (Homo sapiens, UniProt P11142); assay: In Vitro Hsc70 Dose Response Fluorescence Polarization Assay. [Related pubchem assays: 1072 ]
# HeLa = assay: viability loss in HeLa cells – cell-based, 24 h, cherry-picked samples, cytotoxicity control, dose response (AID 504726); assay type: functional; settings: Homo sapiens;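 further: potency for cytotoxicity as loss of luminescence signal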
# [6] = biological target: T2, Lysine-specific demethylase 4C (Homo sapiens, UniProt Q9H3R0); assay: inhibition of JMJD2C H3K9me3 demethylation – biochemical, DELFIA europium, cherry-picked samples, dose response (AID 488835); assay type: functional
# T2 sequence (Q9H3R0 whole entry): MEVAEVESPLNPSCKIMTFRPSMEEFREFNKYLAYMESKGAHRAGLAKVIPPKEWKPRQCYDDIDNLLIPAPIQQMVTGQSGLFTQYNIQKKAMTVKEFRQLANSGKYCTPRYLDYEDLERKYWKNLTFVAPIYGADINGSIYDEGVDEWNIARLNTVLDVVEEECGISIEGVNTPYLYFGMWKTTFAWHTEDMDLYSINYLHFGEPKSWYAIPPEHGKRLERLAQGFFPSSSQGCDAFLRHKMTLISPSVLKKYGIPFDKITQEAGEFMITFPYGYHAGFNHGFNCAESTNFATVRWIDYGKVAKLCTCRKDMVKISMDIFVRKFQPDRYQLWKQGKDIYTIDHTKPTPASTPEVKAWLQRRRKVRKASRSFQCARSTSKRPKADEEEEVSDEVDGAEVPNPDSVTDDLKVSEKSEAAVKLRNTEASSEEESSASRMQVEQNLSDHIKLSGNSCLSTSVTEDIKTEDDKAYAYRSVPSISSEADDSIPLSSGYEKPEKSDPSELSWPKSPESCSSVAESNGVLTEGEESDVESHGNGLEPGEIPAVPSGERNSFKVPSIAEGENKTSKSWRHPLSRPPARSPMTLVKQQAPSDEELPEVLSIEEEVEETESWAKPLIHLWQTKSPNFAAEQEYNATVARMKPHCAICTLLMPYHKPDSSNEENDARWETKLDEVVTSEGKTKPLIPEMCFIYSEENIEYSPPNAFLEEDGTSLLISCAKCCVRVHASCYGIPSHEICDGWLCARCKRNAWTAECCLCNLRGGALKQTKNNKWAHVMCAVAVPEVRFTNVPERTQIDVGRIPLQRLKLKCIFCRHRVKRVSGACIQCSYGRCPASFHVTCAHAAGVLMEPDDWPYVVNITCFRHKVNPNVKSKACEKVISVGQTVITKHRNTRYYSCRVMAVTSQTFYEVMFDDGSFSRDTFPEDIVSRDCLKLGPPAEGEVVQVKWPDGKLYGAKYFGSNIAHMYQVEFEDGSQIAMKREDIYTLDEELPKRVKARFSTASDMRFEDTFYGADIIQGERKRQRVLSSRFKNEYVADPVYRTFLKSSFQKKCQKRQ
# [7] = biological target: T1, Dual specificity protein phosphatase 6; assay: inhibition of rat DUSP6 enzyme activity – biochemical, in vitro, primary screen (AID 425)
# Prothrombin = Prothrombin (Bos taurus, UniProt P00735); assay: thrombin protease inhibitors – biochemical, fluorescence polarization, uHTS hits, dose response (AID 602369); assay type: functional
# [8] = biological target: 72 kDa type IV collagenase (Homo sapiens, UniProt P08253); assay: Dose Response validation of uHTS RPN11 inhibitor hits using a MMP-2 Fluorescence assay.; assay type: functional
# [9] = biological target: T3, Tyrosine-protein phosphatase non-receptor type 7 (Homo sapiens, UniProt P35236); assay type: functional
# T3 sequence (P35236 whole entry): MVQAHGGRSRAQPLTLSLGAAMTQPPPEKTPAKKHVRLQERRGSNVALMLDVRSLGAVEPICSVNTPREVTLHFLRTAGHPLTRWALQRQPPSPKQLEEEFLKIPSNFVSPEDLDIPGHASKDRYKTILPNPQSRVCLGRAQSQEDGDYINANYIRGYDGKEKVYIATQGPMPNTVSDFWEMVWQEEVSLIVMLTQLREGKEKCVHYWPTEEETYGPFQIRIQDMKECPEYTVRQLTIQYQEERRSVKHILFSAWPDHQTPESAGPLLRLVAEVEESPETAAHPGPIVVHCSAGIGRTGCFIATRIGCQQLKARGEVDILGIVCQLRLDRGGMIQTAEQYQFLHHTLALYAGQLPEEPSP
# [10] = biological target: Heat shock 70 kDa protein 1A (Homo sapiens, UniProt P0DMV8); assay: inhibition of Hsp70 binding activity – biochemical, fluorescence polarization, SAR follow-up (AID 1072)
# Large T antigen = Large T antigen (Simian virus 40, UniProt P03070); assay type: functional, Betapolyomavirus macacae;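 further: Confirmatory-stage PubChem screen for compounds that inhibit SV40 T antigen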
# [11] = biological target: T1, Dual specificity protein phosphatase 6; assay type: functional
# ORF 73 = ORF 73 (Human herpesvirus 8, UniProt O40947); assay: KSHV LANA DNA-binding disruption – biochemical, fluorescence polarization, cherry-picked samples, dose response (AID 504725); parameters: species or system Human gammaherpesvirus 8;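 further: fluorescence polarization of a labeled DNA duplex reporting LANA DNA binding; potency is for inhibitors that block LANA binding to the DNA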
# [12] = biological target: Eukaryotic translation initiation factor 4E (Mus musculus, UniProt P63073); assay: blockers of eIF4G binding by eIF4E – biochemical, TR-FRET, dose response (AID 855); assay type: functional;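 further: potency for disrupting eIF4E binding to eIF4GI seen as loss of FRET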
# [13] = inhibition of ARNT PAS-B/TACC3 complex formation – biochemical, AlphaScreen, cherry-picked samples, confirmation (AID 651703); assay type: functional, Homo sapiens;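 further: His-tagged ARNT PAS-B domain paired with GST-TACC3 E629A dimer coactivator fragment; potency of inhibitors that break up the complex and lower AlphaScreen signal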
# Interleukin-8 [14] = biological target: T4, Interleukin-8 (Homo sapiens, UniProt P10145); assay: Dose Response confirmation of uHTS small molecule hits for cystic fibrosis induced NFkb Inhibitors in a TNFa-induced IL8 counterscreen.; assay type: functional; settings: read-out: IC50_Mean
# T4 sequence (P10145 whole entry): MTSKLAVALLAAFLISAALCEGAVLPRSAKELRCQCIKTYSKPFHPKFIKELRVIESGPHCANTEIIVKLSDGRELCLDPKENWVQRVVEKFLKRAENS
# Interleukin-8 [15] = biological target: T4, Interleukin-8; assay: Dose Response confirmation of uHTS small molecule hits for cystic fibrosis induced NFkb Inhibitors in a PAF-induced IL8 counterscreen.; assay type: functional; settings: read-out: IC50_Mean
# HEK293 = assay: EBV LMP1 TES2 canonical NF-kB signalling blockers – cell-based, HEK293, luciferase, cherry-pick, dose response (AID 588343); assay type: functional; settings: Homo sapiens
# [16] = biological target: Tyrosine-protein phosphatase non-receptor type 5 (Homo sapiens, UniProt P54829); assay: PTPN5 enzyme inhibition – biochemical, fluorescence intensity, uHTS hits, confirmation (AID 602372); assay type: functional; settings: read-out: IC50_Mean
# [17] = biological target: Dual specificity protein phosphatase 3 (Homo sapiens, UniProt P51452); assay: VHR phosphatase inhibition, dose response, selectivity assay for STEP inhibitor project, biochemical (AID 602374); assay type: functional; settings: read-out: IC50_Mean
# [18] = biological target: Tyrosine-protein phosphatase non-receptor type 11 (Homo sapiens, UniProt Q06124); assay: PTPN11 enzyme inhibitors – biochemical, selectivity assay for STEP inhibitor project, dose response (AID 602367); assay type: functional; settings: read-out: IC50_Mean
# [19] = biological target: Glucose-6-phosphate 1-dehydrogenase (Homo sapiens, UniProt P11413); assay: inhibition of Homo sapiens G6PD, dose series – biochemical, fluorescence, selectivity assay for P. falciparum G6PD inhibitor project, dose response (AID 504792); assay type: functional
# Sequence of Glucose-6-phosphate 1-dehydrogenase (P11413 whole entry): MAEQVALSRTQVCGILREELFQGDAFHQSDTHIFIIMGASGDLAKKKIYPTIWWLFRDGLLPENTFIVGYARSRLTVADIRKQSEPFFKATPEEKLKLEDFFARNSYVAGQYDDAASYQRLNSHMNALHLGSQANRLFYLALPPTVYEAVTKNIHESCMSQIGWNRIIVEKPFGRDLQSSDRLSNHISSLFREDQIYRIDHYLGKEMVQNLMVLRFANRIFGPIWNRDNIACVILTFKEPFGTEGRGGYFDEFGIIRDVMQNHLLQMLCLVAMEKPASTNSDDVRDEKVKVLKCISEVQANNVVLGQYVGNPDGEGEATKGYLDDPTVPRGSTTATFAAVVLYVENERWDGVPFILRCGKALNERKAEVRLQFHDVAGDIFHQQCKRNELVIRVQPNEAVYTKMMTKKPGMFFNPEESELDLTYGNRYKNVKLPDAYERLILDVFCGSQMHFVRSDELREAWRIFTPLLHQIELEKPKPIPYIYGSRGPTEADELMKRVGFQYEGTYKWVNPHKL
# Sequence of DNA (cytosine-5)-methyltransferase 1 (P26358 whole entry): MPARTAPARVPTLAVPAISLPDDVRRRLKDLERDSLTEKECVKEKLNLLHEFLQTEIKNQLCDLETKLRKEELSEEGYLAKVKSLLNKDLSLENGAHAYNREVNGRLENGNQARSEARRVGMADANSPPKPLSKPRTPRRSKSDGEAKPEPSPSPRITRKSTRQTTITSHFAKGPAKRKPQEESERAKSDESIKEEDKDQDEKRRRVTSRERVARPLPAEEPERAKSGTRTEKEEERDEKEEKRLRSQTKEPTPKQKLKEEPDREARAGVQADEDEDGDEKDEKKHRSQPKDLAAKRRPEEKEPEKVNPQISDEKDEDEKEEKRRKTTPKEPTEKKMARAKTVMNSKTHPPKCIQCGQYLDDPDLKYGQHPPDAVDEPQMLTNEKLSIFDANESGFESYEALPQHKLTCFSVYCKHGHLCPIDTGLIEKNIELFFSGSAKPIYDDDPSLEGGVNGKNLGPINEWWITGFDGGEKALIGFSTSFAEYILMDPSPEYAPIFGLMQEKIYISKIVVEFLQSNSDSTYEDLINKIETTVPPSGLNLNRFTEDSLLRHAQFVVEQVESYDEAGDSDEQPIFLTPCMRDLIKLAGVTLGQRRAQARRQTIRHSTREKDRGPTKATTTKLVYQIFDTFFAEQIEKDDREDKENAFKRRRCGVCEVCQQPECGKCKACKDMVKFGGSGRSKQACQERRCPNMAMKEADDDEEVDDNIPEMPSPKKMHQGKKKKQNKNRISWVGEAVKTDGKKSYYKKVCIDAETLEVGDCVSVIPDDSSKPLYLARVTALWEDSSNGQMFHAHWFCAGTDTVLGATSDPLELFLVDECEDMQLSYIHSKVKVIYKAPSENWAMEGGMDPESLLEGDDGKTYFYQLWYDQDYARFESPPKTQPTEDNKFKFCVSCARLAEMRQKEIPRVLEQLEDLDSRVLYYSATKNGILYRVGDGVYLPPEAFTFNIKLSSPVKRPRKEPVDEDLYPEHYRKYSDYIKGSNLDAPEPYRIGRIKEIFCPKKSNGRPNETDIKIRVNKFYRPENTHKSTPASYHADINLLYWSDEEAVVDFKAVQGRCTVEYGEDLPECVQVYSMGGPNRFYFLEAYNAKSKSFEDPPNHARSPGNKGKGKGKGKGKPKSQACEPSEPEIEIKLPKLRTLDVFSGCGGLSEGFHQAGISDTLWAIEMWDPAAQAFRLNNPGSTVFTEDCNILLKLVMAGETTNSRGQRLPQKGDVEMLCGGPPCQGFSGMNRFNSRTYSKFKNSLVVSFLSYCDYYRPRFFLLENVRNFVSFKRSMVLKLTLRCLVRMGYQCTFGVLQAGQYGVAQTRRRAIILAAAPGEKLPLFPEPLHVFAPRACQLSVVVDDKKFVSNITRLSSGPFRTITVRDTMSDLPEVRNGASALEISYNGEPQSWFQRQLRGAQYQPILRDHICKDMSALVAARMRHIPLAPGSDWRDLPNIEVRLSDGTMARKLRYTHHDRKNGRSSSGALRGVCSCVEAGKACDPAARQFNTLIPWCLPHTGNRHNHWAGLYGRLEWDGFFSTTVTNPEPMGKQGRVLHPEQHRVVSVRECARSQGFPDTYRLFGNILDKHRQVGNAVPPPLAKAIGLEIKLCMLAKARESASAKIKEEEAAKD
# Sequence of Eukaryotic translation initiation factor 4E (P63073 whole entry, the tested form may be a part): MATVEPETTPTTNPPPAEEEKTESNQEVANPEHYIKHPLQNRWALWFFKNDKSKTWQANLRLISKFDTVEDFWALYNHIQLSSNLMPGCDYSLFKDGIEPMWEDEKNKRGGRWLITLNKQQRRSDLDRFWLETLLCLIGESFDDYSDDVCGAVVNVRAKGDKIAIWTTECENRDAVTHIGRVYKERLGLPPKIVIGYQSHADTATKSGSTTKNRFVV
# Sequence of 26S proteasome non-ATPase regulatory subunit 14 (O00487 whole entry): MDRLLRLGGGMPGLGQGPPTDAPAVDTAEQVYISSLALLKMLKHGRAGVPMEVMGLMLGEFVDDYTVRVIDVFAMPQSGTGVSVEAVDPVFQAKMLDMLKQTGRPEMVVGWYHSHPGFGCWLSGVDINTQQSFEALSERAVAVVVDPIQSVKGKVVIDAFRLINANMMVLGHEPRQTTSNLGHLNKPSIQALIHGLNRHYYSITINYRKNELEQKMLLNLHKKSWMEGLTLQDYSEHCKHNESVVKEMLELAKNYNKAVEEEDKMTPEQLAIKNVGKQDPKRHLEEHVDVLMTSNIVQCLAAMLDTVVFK
# Sequence of Glyceraldehyde-3-phosphate dehydrogenase (P04406 whole entry): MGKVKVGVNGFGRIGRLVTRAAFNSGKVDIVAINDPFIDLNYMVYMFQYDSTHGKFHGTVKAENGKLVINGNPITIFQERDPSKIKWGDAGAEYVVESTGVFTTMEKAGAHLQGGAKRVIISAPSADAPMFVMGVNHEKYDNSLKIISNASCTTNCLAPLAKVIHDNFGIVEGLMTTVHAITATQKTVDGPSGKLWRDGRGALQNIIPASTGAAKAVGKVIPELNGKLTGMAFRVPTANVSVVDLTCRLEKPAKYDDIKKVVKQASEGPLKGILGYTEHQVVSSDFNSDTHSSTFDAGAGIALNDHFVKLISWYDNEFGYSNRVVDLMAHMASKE
# Sequence of ORF 73 (O40947 whole entry): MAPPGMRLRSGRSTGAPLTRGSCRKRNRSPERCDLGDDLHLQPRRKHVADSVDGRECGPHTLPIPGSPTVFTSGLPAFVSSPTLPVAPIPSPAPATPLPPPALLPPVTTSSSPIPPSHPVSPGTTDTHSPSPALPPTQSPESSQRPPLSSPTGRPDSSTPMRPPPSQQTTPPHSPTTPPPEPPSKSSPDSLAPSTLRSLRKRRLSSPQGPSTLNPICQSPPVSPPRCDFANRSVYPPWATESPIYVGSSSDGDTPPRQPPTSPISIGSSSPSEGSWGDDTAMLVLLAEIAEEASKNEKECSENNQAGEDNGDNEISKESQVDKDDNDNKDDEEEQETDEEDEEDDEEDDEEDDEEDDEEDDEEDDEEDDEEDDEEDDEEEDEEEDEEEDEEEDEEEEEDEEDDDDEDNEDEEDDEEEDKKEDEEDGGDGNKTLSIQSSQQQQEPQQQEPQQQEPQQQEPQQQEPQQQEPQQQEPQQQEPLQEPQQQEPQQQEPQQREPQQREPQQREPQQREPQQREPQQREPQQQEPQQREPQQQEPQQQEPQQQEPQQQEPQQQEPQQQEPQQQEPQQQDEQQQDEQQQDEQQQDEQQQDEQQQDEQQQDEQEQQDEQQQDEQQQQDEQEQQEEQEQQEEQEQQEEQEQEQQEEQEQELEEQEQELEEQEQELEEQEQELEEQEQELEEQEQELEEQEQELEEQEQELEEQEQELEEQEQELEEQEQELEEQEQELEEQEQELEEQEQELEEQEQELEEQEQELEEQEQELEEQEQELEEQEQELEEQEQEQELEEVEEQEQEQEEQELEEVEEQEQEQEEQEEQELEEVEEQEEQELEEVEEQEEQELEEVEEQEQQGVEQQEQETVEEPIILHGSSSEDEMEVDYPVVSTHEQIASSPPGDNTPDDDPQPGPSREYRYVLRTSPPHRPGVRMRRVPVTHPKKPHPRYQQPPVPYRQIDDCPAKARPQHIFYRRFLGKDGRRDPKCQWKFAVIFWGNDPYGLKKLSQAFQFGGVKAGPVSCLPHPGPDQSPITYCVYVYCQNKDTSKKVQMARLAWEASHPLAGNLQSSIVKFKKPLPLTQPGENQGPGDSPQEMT
# Sequence of 72 kDa type IV collagenase (P08253 whole entry): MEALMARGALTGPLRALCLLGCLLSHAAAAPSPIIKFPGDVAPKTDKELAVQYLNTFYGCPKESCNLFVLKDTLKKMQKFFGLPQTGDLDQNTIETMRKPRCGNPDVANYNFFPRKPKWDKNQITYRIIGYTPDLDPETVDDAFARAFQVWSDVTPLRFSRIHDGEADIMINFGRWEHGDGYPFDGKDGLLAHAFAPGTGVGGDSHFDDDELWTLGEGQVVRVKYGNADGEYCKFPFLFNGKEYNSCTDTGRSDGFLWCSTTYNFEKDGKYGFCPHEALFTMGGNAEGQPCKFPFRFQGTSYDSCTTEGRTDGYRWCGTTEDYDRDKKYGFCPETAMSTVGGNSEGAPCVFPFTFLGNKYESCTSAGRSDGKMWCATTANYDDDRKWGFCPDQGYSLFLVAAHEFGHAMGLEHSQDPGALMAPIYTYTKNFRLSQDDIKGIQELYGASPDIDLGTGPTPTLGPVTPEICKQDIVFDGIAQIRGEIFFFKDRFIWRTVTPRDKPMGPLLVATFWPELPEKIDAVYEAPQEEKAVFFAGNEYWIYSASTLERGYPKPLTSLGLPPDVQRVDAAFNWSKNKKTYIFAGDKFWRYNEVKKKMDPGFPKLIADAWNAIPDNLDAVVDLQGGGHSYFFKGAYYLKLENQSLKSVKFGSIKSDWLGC
# Sequence of Dual specificity protein phosphatase 3 (P51452 whole entry): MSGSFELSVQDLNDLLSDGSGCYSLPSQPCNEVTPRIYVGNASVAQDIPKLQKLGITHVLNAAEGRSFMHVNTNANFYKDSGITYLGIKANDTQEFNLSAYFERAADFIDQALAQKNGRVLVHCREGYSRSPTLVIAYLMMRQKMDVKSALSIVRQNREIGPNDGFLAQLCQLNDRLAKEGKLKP
smiles,measurement,setting,value
O=C1CC(=O)N(Cc2ccco2)C(=O)N1,IC50,[1],9.99 µM (active)
same,IC50,[2],1.58 µM (active)
same,IC50,[3],> 100 µM (not active)
same,IC50,[4],> 100 µM (inactive)
same,IC50,[5],> 100 µM (not active)
same,AC50,HeLa,> 350 µM (inactive)
same,AC50,[6],11.2 µM (active)
same,IC50,[7],> 10 µM (not active)
same,IC50,Prothrombin,59.1 µM (active)
same,IC50,[8],1.04 µM (active)
same,IC50,[9],5.11 µM (active)
same,IC50,[10],> 100 µM (not active)
same,IC50,Large T antigen,76.3 µM (active)
same,IC50,[11],> 100 µM (inactive)
same,AC50,ORF 73,132 µM (active)
same,IC50,[12],> 64 µM (inactive)
CCOc1ccc2c(c1)C(N(CCN1CCOCC1)C(=O)Nc1ccccc1)CC(C)(C)O2 (centres undefined),AC50,[13],84 µM (active)
Nc1ncnc(N2CCc3ccccc32)c1[N+](=O)[O-],IC50,Interleukin-8 [14],40.1 µM (inactive)
same,IC50,Interleukin-8 [15],> 79 µM (inactive)
same,AC50,HEK293,4.52 µM (active)
CCN1CCN(C(=S)c2ccc(Cl)c(Cl)c2)CC1,IC50,[16],18.2 µM (active)
same,IC50,[17],0.81 µM (active)
same,IC50,[18],0.843 µM (active)
same,IC50,[19],> 80 µM (inactive)

# From ChEMBL document CHEMBL1201862, “PubChem BioAssay data set” (2004)
